Laboratory results: patent US12115178B2, “Acylated active agents and methods of their use for the treatment of autoimmune disorders” (Flagship Pioneering Innovations V, Inc., priority 2018, dated 2024)

What was measured:
[1] = Assay 1. Stability in Simulated Gastric Fluid (SGF); assay type: in vitro ADME; details: SGF pH 1.6 with pepsin, 1 μM, 37° C.
Protocol: Assay 1. Stability of acylated active agents in Simulated Gastric Fluid (SGF). This assay was used to assess the stability of an acylated active agent in a stomach.
Medium was prepared by dissolving 2 g of sodium chloride in 0.6 L in ultrapure water (MilliQ®, Millipore Sigma, Darmstadt, Germany). The pH was adjusted to 1.6 with 1N hydrochloric acid, and the volume was then adjusted to 1 L with purified water.
60 mg FaSSIF powder (Biorelevant™, London, UK) were dissolved in 500 mL buffer (above). Pepsin was added (0.1 mg/mL) (Millipore Sigma, Darmstadt, Germany), and the solution was stirred. The resulting SGF media were used fresh for each experiment.
Test compounds were dissolved in DMSO stock to 1 mM. An aliquot of the DMSO stock solution was removed and diluted in the SGF Media in 15 mL falcon tubes to generate a total compound concentration of 1 μM. A 1 mL aliquot was immediately removed and diluted once with 1 volume of acetonitrile for T0 timepoint. The mixture was sealed and mixed at 37° C. in an incubator. Aliquots (1 mL) were removed at regular intervals and immediately quenched by the addition of 1 volume of acetonitrile. The resulting samples were analyzed by LC/MS to determine degradation rates in SGF.

[2] = Assay 2. Stability in Simulated Intestinal Fluid (SIF); assay type: in vitro ADME; details: SIF pH 6.7 with pancreatin, 1 μM, 37° C.
Protocol: Assay 2. Stability of acylated active agents in Simulated Intestinal Fluid (SIF). This assay was used to assess the stability of an acylated active agent in a small intestine. Phosphate buffer was prepared by dissolving 0.42 g of sodium hydroxide pellets and 3.95 g of monobasic sodium phosphate monohydrate and 6.19 g of sodium chloride in ultrapure water (MilliQ®, Millipore Sigma, Darmstadt, Germany). The pH was adjusted to 6.7 using aq. HCl and aq. NaOH, as necessary, and the solution was diluted with ultrapure water to produce 1 L of the pH 6.7 buffer. 112 mg FaSSIF powder (Biorelevant™, London, UK) was dissolved in 50 mL of the pH 6.7 buffer. 2 to 3 mL of the resulting solution were then added to 500 mg pancreatin (Millipore Sigma, Darmstadt, Germany). The resulting mixture was agitated by finger tapping the vessel containing the mixture until milky suspension formed. At this time, the remainder of the 50 mL FaSSiF/pH 6.7 buffer solution was added. The resulting suspension was flipped upside down 10 times to produce SIF, which was used fresh. Test compounds were dissolved in DMSO stock to 1 mM. An aliquot of the DMSO stock solution was removed and diluted in the SIF media in 15 mL falcon tubes to produce a mixture with a tested compound concentration of 1 μM. A 1 mL aliquot was immediately removed and diluted once with 1 volume of acetonitrile for T0 timepoint. The mixture was sealed and agitated at 37° C. in an incubator. Aliquots (1 mL) were removed at regular intervals and immediately quenched by the addition of 1 volume of acetonitrile. The resulting samples were analyzed by LC/MS to determine degradation rates.

Compound	Assay 1 (SGF) (% Remaining @ 1 hour) [1]	Assay 2 (SIF) (% @ Remaining 4 hours) [2]
CCC(=O)OC1OC[C@@H](OC(=O)CC)[C@H](OC(=O)CC)[C@H]1OC(=O)CC (stereo partly drawn) [Compound 130, (3R,4S,5R)-3,4,5-tris(propanoyloxy)oxan-2-yl propanoate]	C (>75% of the tested compound remaining)	A (<25% of the tested compound remaining)
CC(=O)Oc1ccc(C2CC(=O)c3c(OC(C)=O)cc(OC(C)=O)cc3O2)cc1 (stereo not shown) [Compound 9, [4-(5,7-diacetoxy-4-oxo-chroman-2-yl)phenyl] acetate]	C (>75% of the tested compound remaining)	A (<25% of the tested compound remaining)
CCC(=O)O[C@@H]1[C@@H](OC(=O)CC)[C@H](Oc2ccccc2C(=O)O)OC[C@H]1OC(=O)CC [Compound 27, 2-(((2S,3R,4S,5R)-3,4,5-tris(propionyloxy)tetrahydro-2H-pyran-2-yl)oxy)benzoic acid]	C (>75% of the tested compound remaining)	B (25-75% of the tested compound remaining)
CCCC(=O)O[C@@H]1[C@@H](OC(=O)CCC)[C@@H](Oc2ccccc2C(=O)O)OC[C@@H]1OC(=O)CCC [Compound 31, 2-(((2R,3R,4S,5S)-3,4,5-tris(butyryloxy)tetrahydro-2H-pyran-2-yl)oxy)benzoic acid]	C (>75% of the tested compound remaining)	A (<25% of the tested compound remaining)
CCC(=O)O[C@@H]1[C@H](OC(=O)CC)[C@H](C)OC(Oc2ccccc2C(=O)O)[C@H]1OC(=O)CC (stereo partly drawn) [Compound 25, 2-(((3S,4R,5R,6S)-6-methyl-3,4,5-tris(propionyloxy)tetrahydro-2H-pyran-2-yl)oxy)benzoic acid]	C (>75% of the tested compound remaining)	C (>75% of the tested compound remaining)
CCC(=O)O[C@H]1[C@H](OC(=O)CC)[C@H](OC(=O)Cc2c[nH]c3ccccc23)O[C@@H](C)[C@H]1OC(=O)CC [Compound 118, (2S,3S,4R,5R,6S)-2-{[2-(1H-indol-3-yl)acetyl]oxy}-6-methyl-4,5-bis(propanoyloxy)oxan-3-yl propanoate]	C (>75% of the tested compound remaining)	A (<25% of the tested compound remaining)
CCC(=O)O[C@@H]1[C@@H](OC(=O)CC)[C@H](OC(=O)CC)CO[C@H]1O [Compound 129, (2R,3R,4S,5R)-2-hydroxy-4,5-bis(propanoyloxy)oxan-3-yl propanoate]	C (>75% of the tested compound remaining)	A (<25% of the tested compound remaining)
CCC(=O)OC1O[C@@H](C)[C@@H](OC(=O)CC)[C@@H](OC(=O)CC)[C@@H]1OC(=O)CC (stereo partly drawn) [Compound 125, (3S,4R,5R,6S)-6-methyl-3,4,5-tris(propanoyloxy)oxan-2-yl propanoate]	C (>75% of the tested compound remaining)	A (<25% of the tested compound remaining)
CCCC(=O)Oc1ccc(C2CC(=O)c3c(OC(=O)CCC)cc(OC(=O)CCC)cc3O2)cc1 (stereo not shown) [Compound 10, [4-[5,7-di(butanoyloxy)-4-oxo-chroman-2-yl]phenyl] butanoate]	B (25-75% of the tested compound remaining)	A (<25% of the tested compound remaining)
CCCC(=O)O[C@H]1[C@@H](OC(=O)CCC)COC(O)[C@@H]1OC(=O)CCC (stereo partly drawn) [Compound 151, (3S,4S,5R)-4,5-bis(butanoyloxy)-6-hydroxyoxan-3-yl butanoate]	C (>75% of the tested compound remaining)	A (<25% of the tested compound remaining)
CCCC(=O)Oc1cc(OC(=O)CCC)c2c(=O)cc(-c3ccc(OC(=O)CCC)c(OC(=O)CCC)c3)oc2c1 [Compound 171, 2-[3,4-bis(butanoyloxy)phenyl]-5-(butanoyloxy)-4-oxo-4H-chromen-7-yl butanoate]	C (>75% of the tested compound remaining)	A (<25% of the tested compound remaining)
CCC(=O)Oc1cc(OC(=O)CC)c2c(=O)c(OC(=O)CC)c(-c3cc(OC(=O)CC)c(OC(=O)CC)c(OC(=O)CC)c3)oc2c1 [Compound 13, [4-oxo-3,5-di(propanoyloxy)-2-[3,4,5-tri(propanoyloxy)phenyl]chromen-7-yl] propanoate]	B (25-75% of the tested compound remaining)	A (<25% of the tested compound remaining)
CCCC(=O)Oc1cc(OC(=O)CCC)c2c(=O)c(OC(=O)CCC)c(-c3ccc(OC(=O)CCC)c(OC(=O)CCC)c3)oc2c1 [Compound 181, [2-butanoyloxy-4-[3,5,7-tri(butanoyloxy)-4-oxo-chromen-2-yl]phenyl] butanoate]	C (>75% of the tested compound remaining)	A (<25% of the tested compound remaining)
CC(=O)Oc1cc(C(=O)O)cc(OC(C)=O)c1OC(C)=O [Compound 199, 3,4,5-triacetoxybenzoic acid]	C (>75% of the tested compound remaining)	B (25-75% of the tested compound remaining)
CCC(=O)Oc1ccc2c(c1)oc(=O)c1cc(OC(=O)CC)c(OC(=O)CC)cc12 [Compound 204, [6-oxo-8,9-di(propanoyloxy)benzo[c]chromen-3-yl] propanoate]	C (>75% of the tested compound remaining)	A (<25% of the tested compound remaining)
CCC(=O)O[C@@H]1[C@@H](OC(=O)CC)[C@@H](OC(=O)CC)CO[C@H]1O [Compound 127, (3S,4S,5R,6R)-6-hydroxy-4,5-bis(propanoyloxy)oxan-3-yl propanoate]	C (>75% of the tested compound remaining)	B (25-75% of the tested compound remaining)
CCCC(=O)O[C@@H]1[C@@H](OC(=O)CCC)[C@@H](OC(=O)CCc2c[nH]c3ccccc23)OC[C@@H]1OC(=O)CCC [Compound 81, (2R,3R,4S,5S)-4,5-bis(butanoyloxy)-2-{[3-(1H-indol-3-yl)propanoyl]oxy}oxan-3-yl butanoate]	B (25-75% of the tested compound remaining)	A (<25% of the tested compound remaining)
CCCC(=O)Oc1cc(OC(=O)CCC)c2c(=O)c(OC(=O)CCC)c(-c3cc(OC(=O)CCC)c(OC(=O)CCC)c(OC(=O)CCC)c3)oc2c1 [Compound 169, 3,5-bis(butanoyloxy)-4-oxo-2-[3,4,5-tris(butanoyloxy)phenyl]-4H-chromen-7-yl butanoate]	C (>75% of the tested compound remaining)	C (>75% of the tested compound remaining)
CCC(=O)Oc1cc(OC(=O)CC)c2c(c1)O[C@H](c1cc(OC(=O)CC)c(OC(=O)CC)c(OC(=O)CC)c1)[C@H](OC(=O)c1cc(OC(=O)CC)c(OC(=O)CC)c(OC(=O)CC)c1)C2 [Compound 195, [(2R,3R)-5,7-di(propanoyloxy)-2-[3,4,5-tri(propanoyloxy)phenyl]chroman-3-yl] 3,4,5-tri(propanoyloxy)benzoate]	C (>75% of the tested compound remaining)	–
CCCC(=O)O[C@@H]1[C@H](OC(=O)CCC)[C@H](C)OC(Oc2ccc(N)cc2C(=O)O)[C@H]1OC(=O)CCC (stereo partly drawn) [Compound 41, 5-amino-2-(((3S,4R,5R,6S)-3,4,5-tris(butyryloxy)-6-methyltetrahydro-2H-pyran-2-yl)oxy)benzoic acid]	C (>75% of the tested compound remaining)	C (>75% of the tested compound remaining)
CCC(=O)OC[C@H]1O[C@@H](OC(=O)/C=C/c2c[nH]c3ccccc23)[C@H](OC(=O)CC)[C@@H](OC(=O)CC)[C@@H]1OC(=O)CC [Compound 95, (2S,3R,4S,5R,6R)-3,4,5-tris(propanoyloxy)-6-[(propanoyloxy)methyl]oxan-2-yl (2E)-3-(1H-indol-3-yl)prop-2-enoate]	B (25-75% of the tested compound remaining)	–
